Test results from US20250195521A1 (Revolution Medicines, Inc., priority 2020, published 2025).

How the values were obtained:
Assay type in all cases: biochemical
NRAS G12C = NRAS G12C (Homo sapiens (Human), UniProt P01111+P62937, G12C); assay: Ras-Raf disruption/FRET/MOA assay, NRAS G12C
How it was run: (§1)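 Measured by TR-FRET: a decrease relative to DMSO indicates disruption of GMPPNP-Ras binding to BRAF^RBD, mediated by Cyclophilin A (25 μM). Compound was tested as a dilution series up to 30 μM with 3 h preincubation at 25° C.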

KRAS G13D = KRAS G13D (Homo sapiens (Human), UniProt P01116+P62937, G13D); assay: Ras-Raf disruption/FRET/MOA assay, KRAS G13D
Chain of KRAS G13D (P01116 other isoform, or with tags, fused parts or gaps G13D): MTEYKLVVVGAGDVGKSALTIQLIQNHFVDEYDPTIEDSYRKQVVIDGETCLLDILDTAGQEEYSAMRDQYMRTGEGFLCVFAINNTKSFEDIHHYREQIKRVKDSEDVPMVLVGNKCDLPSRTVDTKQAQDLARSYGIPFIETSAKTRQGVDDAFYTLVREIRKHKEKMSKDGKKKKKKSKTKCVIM
Chain of KRAS G13D (P62937 whole entry): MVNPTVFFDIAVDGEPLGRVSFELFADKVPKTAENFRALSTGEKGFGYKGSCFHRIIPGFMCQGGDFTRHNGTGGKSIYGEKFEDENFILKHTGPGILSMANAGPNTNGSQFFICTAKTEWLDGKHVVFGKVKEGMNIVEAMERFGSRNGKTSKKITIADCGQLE
How it was run: as §1

KRAS G12C = KRAS G12C (Homo sapiens (Human), UniProt P01116+P62937, G12C); assay: Ras-Raf disruption/FRET/MOA assay, KRAS G12C
Chain of KRAS G12C (P01116-2 other isoform, or with tags, fused parts or gaps G12C): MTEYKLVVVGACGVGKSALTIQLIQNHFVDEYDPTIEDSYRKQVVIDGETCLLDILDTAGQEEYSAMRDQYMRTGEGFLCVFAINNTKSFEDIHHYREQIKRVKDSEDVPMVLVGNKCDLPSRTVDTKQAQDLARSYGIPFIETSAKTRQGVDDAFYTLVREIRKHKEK
Chain of KRAS G12C (P62937 whole entry): as the sequence (P62937 whole entry) above
How it was run: as §1

KRAS G12D = KRAS G12D (Homo sapiens (Human), UniProt P01116+P62937, G12D); assay: Ras-Raf disruption/FRET/MOA assay, KRAS G12D
Chain of KRAS G12D (P01116 other isoform, or with tags, fused parts or gaps G12D): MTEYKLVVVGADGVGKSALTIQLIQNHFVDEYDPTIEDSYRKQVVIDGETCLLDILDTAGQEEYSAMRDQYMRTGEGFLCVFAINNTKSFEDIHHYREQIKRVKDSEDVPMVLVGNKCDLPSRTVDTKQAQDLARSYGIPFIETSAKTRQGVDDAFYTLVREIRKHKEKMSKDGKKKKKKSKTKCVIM
Chain of KRAS G12D (P62937 whole entry): as the sequence (P62937 whole entry) above
How it was run: as §1

NRAS Q61R = NRAS Q61R (Homo sapiens (Human), UniProt P01111+P62937, Q61R); assay: Ras-Raf disruption/FRET/MOA assay, NRAS Q61R
Chain of NRAS Q61R (P01111 whole entry Q61R, the tested form may be a part): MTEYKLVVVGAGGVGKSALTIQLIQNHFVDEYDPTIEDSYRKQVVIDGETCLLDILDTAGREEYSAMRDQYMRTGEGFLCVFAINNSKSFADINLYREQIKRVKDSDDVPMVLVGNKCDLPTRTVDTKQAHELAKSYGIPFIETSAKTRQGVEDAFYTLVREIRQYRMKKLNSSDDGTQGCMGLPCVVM
Chain of NRAS Q61R (P62937 whole entry, the tested form may be a part): as the sequence (P62937 whole entry) above
From the text: (§2) Disruption of B-Raf Ras-Binding Domain (BRAF^RBD) Interaction with K-Ras by Compounds of the Invention (Also Called a FRET Assay or an MOA Assay)
(§3) Note—The following protocol describes a procedure for monitoring disruption of K-Ras G12C (GMP-PNP) binding to BRAF^RBD by a compound of the invention. This protocol may also be executed substituting other Ras proteins or nucleotides, such as K-Ras G12D and K-Ras G13D.
(§4) The purpose of this biochemical assay was to measure the ability of test compounds to facilitate ternary complex formation between a nucleotide-loaded K-Ras isoform and Cyclophilin A; the resulting ternary complex disrupts binding to a BRAF^RBD construct, inhibiting K-Ras signaling through a RAF effector. Data is reported as IC50 values.
(§5) In assay buffer containing 25 mM HEPES pH 7.3, 0.002% Tween20, 0.1% BSA, 100 mM NaCl and 5 mM MgCl2, tagless Cyclophilin A, His6-K-Ras-GMPPNP, and GST-BRAF^RBD were combined in a 384-well assay plate at final concentrations of 25 μM, 12.5 nM, and 50 nM, respectively. Compound was present in plate wells as a 10-point 3-fold dilution series starting at a final concentration of 30 μM. After incubation at 25° C. for 3 hours, a mixture of anti-His Eu—W1024 and anti-GST allophycocyanin was then added to assay sample wells at final concentrations of 10 nM and 50 nM, respectively, and the reaction incubated for an additional 1.5 hours. […] Compounds that facilitate disruption of a K-Ras: RAF complex were identified as those eliciting a decrease in the TR-FRET ratio relative to DMSO control wells.

NRAS WT = NRAS WT (Homo sapiens (Human), UniProt P01111+P62937); assay: Ras-Raf disruption/FRET/MOA assay, NRAS WT
Chain of NRAS WT (P01111 whole entry): as the sequence (P01111 whole entry Q61R, the tested form may be a part) above, with R61Q counted along it
Chain of NRAS WT (P62937 whole entry): as the sequence (P62937 whole entry) above
From the text: as §2, §3, §4, §5

KRAS G12S = KRAS G12S (Homo sapiens (Human), UniProt P01116+P62937, G12S); assay: Ras-Raf disruption/FRET/MOA assay, KRAS G12S
Chain of KRAS G12S (P01116 other isoform, or with tags, fused parts or gaps G12S): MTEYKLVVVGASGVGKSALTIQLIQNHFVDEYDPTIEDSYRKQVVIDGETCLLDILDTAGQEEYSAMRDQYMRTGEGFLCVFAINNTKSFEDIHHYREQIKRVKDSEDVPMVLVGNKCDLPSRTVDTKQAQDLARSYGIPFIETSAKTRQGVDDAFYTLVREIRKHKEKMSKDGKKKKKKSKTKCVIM
Chain of KRAS G12S (P62937 whole entry): as the sequence (P62937 whole entry) above
How it was run: as §1

KRAS Q61H = KRAS Q61H (Homo sapiens (Human), UniProt P01116+P62937, Q61H); assay: Ras-Raf disruption/FRET/MOA assay, KRAS Q61H
Chain of KRAS Q61H (P01116 other isoform, or with tags, fused parts or gaps Q61H): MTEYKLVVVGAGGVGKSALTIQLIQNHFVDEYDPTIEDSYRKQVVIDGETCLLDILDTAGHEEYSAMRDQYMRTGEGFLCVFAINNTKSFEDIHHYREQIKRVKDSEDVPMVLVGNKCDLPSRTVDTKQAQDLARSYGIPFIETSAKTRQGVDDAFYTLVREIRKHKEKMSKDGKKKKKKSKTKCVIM
Chain of KRAS Q61H (P62937 whole entry): as the sequence (P62937 whole entry) above
From the text: as §2, §3, §4, §5

KRAS G12V = KRAS G12V (Homo sapiens (Human), UniProt P01116+P62937, G12V); assay: Ras-Raf disruption/FRET/MOA assay, KRAS G12V
Chain of KRAS G12V (P01116 other isoform, or with tags, fused parts or gaps G12V): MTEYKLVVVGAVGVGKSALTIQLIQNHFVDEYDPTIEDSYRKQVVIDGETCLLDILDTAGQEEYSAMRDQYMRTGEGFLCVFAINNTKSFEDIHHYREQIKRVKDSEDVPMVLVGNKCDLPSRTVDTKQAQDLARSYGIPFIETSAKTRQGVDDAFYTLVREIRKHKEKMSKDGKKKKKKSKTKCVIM
Chain of KRAS G12V (P62937 whole entry): as the sequence (P62937 whole entry) above
How it was run: as §1

KRAS WT = KRAS WT (Homo sapiens (Human), UniProt P01116+P62937); assay: Ras-Raf disruption/FRET/MOA assay, KRAS WT
Chain of KRAS WT (P01116 other isoform, or with tags, fused parts or gaps): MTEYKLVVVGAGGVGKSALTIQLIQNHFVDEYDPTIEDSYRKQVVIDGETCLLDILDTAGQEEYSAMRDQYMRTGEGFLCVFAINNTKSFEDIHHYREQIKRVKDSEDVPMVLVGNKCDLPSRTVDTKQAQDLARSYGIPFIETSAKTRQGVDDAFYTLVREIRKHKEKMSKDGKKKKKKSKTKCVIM
Chain of KRAS WT (P62937 whole entry): as the sequence (P62937 whole entry) above
How it was run: as §1

NRAS Q61K = NRAS Q61K (Homo sapiens (Human), UniProt P01111+P62937, Q61K); assay: Ras-Raf disruption/FRET/MOA assay, NRAS Q61K
Chain of NRAS Q61K (P01111 whole entry Q61K): as the sequence (P01111 whole entry Q61R, the tested form may be a part) above, with R61K counted along it
Chain of NRAS Q61K (P62937 whole entry): as the sequence (P62937 whole entry) above
From the text: as §2, §3, §4, §5

KRAS G13C = KRAS G13C (Homo sapiens (Human), UniProt P01116+P62937, G13C); assay: Ras-Raf disruption/FRET/MOA assay, KRAS G13C
Chain of KRAS G13C (P01116 other isoform, or with tags, fused parts or gaps G13C): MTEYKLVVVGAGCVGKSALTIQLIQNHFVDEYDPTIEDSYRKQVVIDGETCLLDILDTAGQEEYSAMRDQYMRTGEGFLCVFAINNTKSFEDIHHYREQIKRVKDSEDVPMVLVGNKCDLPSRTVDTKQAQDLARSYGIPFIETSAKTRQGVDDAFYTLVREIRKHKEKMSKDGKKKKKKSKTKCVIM
Chain of KRAS G13C (P62937 whole entry): as the sequence (P62937 whole entry) above
How it was run: as §1

Chain of NRAS G12C (P01111 whole entry G12C): as the sequence (P01111 whole entry Q61R, the tested form may be a part) above, with G12C, R61Q counted along it
Chain of NRAS G12C (P62937 whole entry): as the sequence (P62937 whole entry) above

SMILES | IC50 (NRAS G12C) [nM] | IC50 (KRAS G13D) [nM] | IC50 (KRAS G12C) [nM] | IC50 (KRAS G12D) [nM] | IC50 (NRAS Q61R) [nM] | IC50 (NRAS WT) [nM] | IC50 (KRAS G12S) [nM] | IC50 (KRAS Q61H) [nM] | IC50 (KRAS G12V) [nM] | IC50 (KRAS WT) [nM] | IC50 (NRAS Q61K) [nM] | IC50 (KRAS G13C) [nM]
CCn1c(-c2cccnc2[C@H](C)OC)c2c3cc(ccc31)-c1cc(O)cc(c1)C[C@H](NC(=O)[C@H](C(C)C)N(C)C(=O)[C@]13C[C@H]1CCN3C(=O)[C@H]1CN1)C(=O)N1CCC[C@H](N1)C(=O)OCC(C)(C)C2 [Example 244] | 10 to 100 | 100 to 1000 | 10 to 100 | 100 to 1000 | 100 to 1000 | 100 to 1000 | 100 to 1000 | 10 to 100 | 100 to 1000 | 100 to 1000 | 1000 to 10000 | 100 to 1000
CCn1c(-c2cccnc2[C@H](C)OC)c2c3cc(ccc31)-c1cc(O)cc(c1)C[C@H](NC(=O)[C@H](C(C)C)N(C)C(=O)[C@@H]1CO[C@H](C)CN1C(=O)[C@H]1CN1)C(=O)N1CCC[C@H](N1)C(=O)OCC(C)(C)C2 [Example 248] | 10 to 100 | 10 to 100 | 10 to 100 | 10 to 100 | 100 to 1000 | 10 to 100 | 10 to 100 | 10 to 100 | 10 to 100 | 10 to 100 | 100 to 1000 | 10 to 100
CCn1c(-c2cccnc2[C@H](C)OC)c2c3cc(ccc31)-c1cc(O)cc(c1)C[C@H](NC(=O)[C@H](C(C)C)N(C)C(=O)[C@@H]1CO[C@H](C)CN1C(=O)[C@@H]1CN1)C(=O)N1CCC[C@H](N1)C(=O)OCC(C)(C)C2 [Example 249] | < 10 | 10 to 100 | < 10 | 10 to 100 | 10 to 100 | 10 to 100 | 10 to 100 | < 10 | 10 to 100 | 10 to 100 | 10 to 100 | 10 to 100
